Values quoted from earlier work in PubChem BioAssay AID1259409 (Chemical Carcinogenesis Research Information System (CCRIS), 2018).

System: rodent chemically induced tumor inhibition, incidence and multiplicity
Test: CCRIS tumor inhibitor studies

Compound: Cc1c(C)c2c(c(C)c1O)CC[C@@](C)(CCC[C@H](C)CCC[C@H](C)CCCC(C)C)O2
- tumour outcome (control, treated, inhibition, significance) (Carcinogen: 7,12-DIMETHYLBENZ[A]ANTHRACENE, 57-97-6, Dose [Inhibitor]: 0.2% IN HIGH SATURATED FAT DIET DAILY STARTING 29 D BEFORE CARCINOGEN TREATMENT AND CONTINUING FOR DURATION OF STUDY (ST, Route [Inhibitor]: ORAL, Species: RAT, Strain/Sex: SPRAGUE-DAWLEY/FEMALE, Target Tissue: Type of Lesion: MAMMARY GLAND: ADENOCARCINOMA, Dose [Carcinogen]: 10 MG IN 1 ML STRIPPED CORN OIL ONCE AT 50 D OF AGE, Promoter: NONE USED): 65%, 65%, 0%, not calculated
- tumour outcome (control, treated, inhibition, significance) (Carcinogen: 7,12-DIMETHYLBENZ[A]ANTHRACENE, 57-97-6, Dose [Inhibitor]: 0.2% IN LOW FAT DIET DAILY STARTING 29 D BEFORE CARCINOGEN TREATMENT AND CONTINUING FOR DURATION OF STUDY (STUDY DURATIO, Route [Inhibitor]: ORAL, Species: RAT, Strain/Sex: SPRAGUE-DAWLEY/FEMALE, Target Tissue: Type of Lesion: MAMMARY GLAND: ADENOCARCINOMA, Dose [Carcinogen]: 10 MG IN 1 ML STRIPPED CORN OIL ONCE AT 50 D OF AGE, Promoter: NONE USED): 35%, 35%, 0%, not calculated
- tumour outcome (control, treated, inhibition, significance) (Carcinogen: 7,12-DIMETHYLBENZ[A]ANTHRACENE, 57-97-6, Dose [Inhibitor]: 0.2% IN LOW FAT DIET THROUGHOUT THE EXPERIMENT, (STUDY DURATION: 32 WK), Route [Inhibitor]: ORAL, Species: RAT, Strain/Sex: SPRAGUE-DAWLEY/FEMALE, Target Tissue: Type of Lesion: MAMMARY GLAND: PARENCHYMAL CELL CARCINOMA, Dose [Carcinogen]: 10 MG IN 1 ML CORN OIL AT 50 D OF AGE ONCE, Promoter: NONE USED): 37%, 32%, 14%, not calculated
- tumour outcome (control, treated, inhibition, significance) (Carcinogen: 7,12-DIMETHYLBENZ[A]ANTHRACENE, 57-97-6, Dose [Inhibitor]: 0.2% IN SATURATED FAT DIET THROUGHOUT THE EXPERIMENT, (STUDY DURATION: 32 WK), Route [Inhibitor]: ORAL, Species: RAT, Strain/Sex: SPRAGUE-DAWLEY/FEMALE, Target Tissue: Type of Lesion: MAMMARY GLAND: PARENCHYMAL CELL CARCINOMA, Dose [Carcinogen]: 10 MG IN 1 ML CORN OIL AT 50 D OF AGE ONCE, Promoter: NONE USED): 67%, 65%, 3%, not calculated
- tumour outcome (control, treated, inhibition, significance) (Carcinogen: 7,12-DIMETHYLBENZ[A]ANTHRACENE, 57-97-6, Dose [Inhibitor]: 43 UG IN 80 µL ACETONE ONCE APPLIED ON BACK 5 MIN PRIOR TO CARCINOGEN DOSE (STUDY DURATION: 4 MO), Route [Inhibitor]: DERMAL, Species: MOUSE, Strain/Sex: ICR/FEMALE, Target Tissue: Type of Lesion: SKIN: TUMOR, Dose [Carcinogen]: 25 UG IN 80 µL ACETONE APPLIED ON BACK, Promoter: CROTON OIL, 8001-28-3): 29/30 (97%), 27/30 (90%), 7%, not significant
- tumour outcome (control, treated, inhibition, significance) (Carcinogen: 7,12-DIMETHYLBENZ[A]ANTHRACENE;57-97-6, Dose [Inhibitor]: 200 MG IN 1 ML OLIVE OIL ONCE 1 HR PRIOR TO CARCINOGEN DOSE(STUDY DURATION: 18 WK), Route [Inhibitor]: GAVAGE, Species: RAT, Strain/Sex: SPRAGUE-DAWLEY/FEMALE, Target Tissue: Type of Lesion: MAMMARY GLAND: TUMOR, Dose [Carcinogen]: 12 MG IN 1 ML OLIVE OIL ADMINISTERED 1 HR AFTER INHIBITOR, Promoter: NONE USED): 27/34 (80%), 10/18 (56%), 30%, not significant
- tumour outcome (control, treated, inhibition, significance) (Carcinogen: 7,12-DIMETHYLBENZ[A]ANTHRACENE, 57-97-6, Dose [Inhibitor]: 1000 UG APPLIED ONCE 5 MIN PRIOR TO CARCINOGEN DOSE (STUDY DURATION: 28 WK), Route [Inhibitor]: DERMAL, Species: MOUSE, Strain/Sex: CD-1/FEMALE, Target Tissue: Type of Lesion: SKIN: PAPILLOMA, Dose [Carcinogen]: 2.56 UG APPLIED ONCE 5 MIN AFTER INHIBITOR, Promoter: 12-O-TETRADECANOYLPHORBOL-13-ACETATE, 16561-29-8): 82%, 68%, 17%, not calculated
- tumour outcome (control, treated, inhibition, significance) (Carcinogen: METHYL(ACETOXYMETHYL)NITROSAMINE, 56856-83-8, Dose [Inhibitor]: 0, 5.8 NMOL IN DRINKING WATER BEGINNING 2 WK PRIOR TO CARCINOGEN AND CONTINUED FOR STUDY DURATION, (STUDY DURATION: 13 M, Dose [Inhibitor]: 0, 5.8 NMOL IN DRINKING WATER BEGINNING 2 WK PRIOR TO CARCINOGEN AND CONTINUED FOR STUDY DURATION, (STUDY DURATION: 13 M, Route [Inhibitor]: ORAL, Species: HAMSTER, Strain/Sex: SYRIAN/FEMALE, Target Tissue: Type of Lesion: ORAL CAVITY: TUMOR, Dose [Carcinogen]: 2 MG/KG BW IN DISTILLED WATER TO RIGHT CHEEK POUCH 2/MO FOR 6 MO (TOTAL DOSE 24 MG/KG), Promoter: NONE USED): 14/15 (93%), 1/15 (7%), 92%, p<0.001
- tumour outcome (control, treated, inhibition, significance) (Carcinogen: N-BIS(2-HYDROXYPROPYL)NITROSAMINE, 53609-64-6, Dose [Inhibitor]: 0, 1% IN DIET FOR 30 WK BEGINNING POST CARCINOGEN TREATMENT (STUDY DURATION: 32 WK), Route [Inhibitor]: ORAL, Species: RAT, Strain/Sex: F344/MALE, Target Tissue: Type of Lesion: BLADDER: ADENOMA, Dose [Carcinogen]: 0.1% IN DRINKING WATER FOR 2 WK, Promoter: NONE USED): 5%, 15%, -200%, not calculated
- tumour outcome (control, treated, inhibition, significance) (Carcinogen: N-BIS(2-HYDROXYPROPYL)NITROSAMINE, 53609-64-6, Dose [Inhibitor]: 0, 1% IN DIET FOR 30 WK BEGINNING POST CARCINOGEN TREATMENT (STUDY DURATION: 32 WK), Route [Inhibitor]: ORAL, Species: RAT, Strain/Sex: F344/MALE, Target Tissue: Type of Lesion: KIDNEY: TUMOR, Dose [Carcinogen]: 0.1% IN DRINKING WATER FOR 2 WK, Promoter: NONE USED): 10%, 20%, -100%, not calculated
